From patent US20220296595A1, “CDK INHIBITORS” (QILU REGOR THERAPEUTICS INC., priority 2019, published 2022)
Read-outs that look alike come from different tables or passages of the source.

Tests used:
CDK4/CyclinD1 = target: T1, CDK4/CyclinD1 (Homo sapiens, UniProt P11802); test: Assay for inhibition of CDK4/CyclinD1 (Caliper microfluidic kinase assay); type: biochemical
T1 construct: purchased Thermofisher PR8064A
Procedure: The CDK4 enzyme assay for IC50 determination was performed as follows. Microfluidic kinase detection technology (Caliper) was used to monitor the phosphorylation of peptide substrate by CDK4/CyclinD1. The total reaction volume was 15 μL containing buffer A (100 mM HEPES (pH 7.5), 0.1% BSA, 0.01% Triton X-100, 1 mM DTT, 10 mM MgCl2, 10 μM Sodium Orthovanadate, 10 μM Beta-Glycerophosphate), 200 μM ATP, 1 nM CDK4/CyclinD1 (Thermofisher, PR8064A), 1 μM FL-34 (5-FAM-[…]), and the test compound at appropriate dilutions in DMSO. All components were added to the 384-well plate (Corning, 4514), and incubated at Room Temperature for 3 hours. The reaction was terminated by addition of 15 μL Stop Buffer (180 mM HEPES (pH 7.5), 20 mM EDTA, Coating-3 reagent (PerkinElmer, 760050)). The plate was then loaded on Caliper EZ Reader (EZ Reader II, PerkinElmer, HD-4HYSG2772), and the reaction mixtures including substrate and product were sipped into the microfluidic chip for separation and detection. The IC50 values of the test compound were determined by fitting the inhibition curves by 4 parameter sigmoidal dose-response model using the Xlfit5/GraphPad Prism 5 software.

CDK2/CyclinE1 = target: T2, CDK2/CyclinE1 (Homo sapiens, UniProt P24941); test: Assay for inhibition of CDK2/CyclinE1 (Caliper microfluidic kinase assay); type: biochemical; settings: read-out: CDK2 IC50
T2 construct: purchased SignalChem C29-18G
Procedure: The CDK2 enzyme assay for IC50 determination was performed as follows. Microfluidic kinase detection technology (Caliper) was used to monitor the phosphorylation of peptide substrate by CDK2/CyclinE1. The total reaction volume was 15 μL containing buffer A (100 mM HEPES (pH 7.5), 0.1% BSA, 0.01% Triton X-100, 1 mM DTT, 10 mM MgCl2, 10 μM Sodium Orthovanadate, 10 μM Beta-Glycerophosphate), 100 μM ATP, 5 nM CDK2/CyclinE1 (SignalChem, C29-18G), 5 μM FL-18 (5-FAM-QSPKKG-NH2), and the test compound at appropriate dilutions in DMSO. All components were added to the 384-well plate (Corning, 4514), and incubate at Room Temperature for 3 hours. The reaction was terminated by addition of 15 μL Stop Buffer (180 mM HEPES (pH 7.5), 20 mM EDTA, Coating-3 reagent (PerkinElmer, 760050)). The plate was loaded on Caliper EZ Reader (EZ Reader II, PerkinElmer, HD-4HYSG2772), and the reaction mixtures including substrate and product were sipped into the microfluidic chip for separation and detection. The IC50 values of the test compound were determined by fitting the inhibition curves by 4 parameter sigmoidal dose-response model using the Xlfit5/GraphPad Prism 5 software.

T1 sequence (P11802 whole entry): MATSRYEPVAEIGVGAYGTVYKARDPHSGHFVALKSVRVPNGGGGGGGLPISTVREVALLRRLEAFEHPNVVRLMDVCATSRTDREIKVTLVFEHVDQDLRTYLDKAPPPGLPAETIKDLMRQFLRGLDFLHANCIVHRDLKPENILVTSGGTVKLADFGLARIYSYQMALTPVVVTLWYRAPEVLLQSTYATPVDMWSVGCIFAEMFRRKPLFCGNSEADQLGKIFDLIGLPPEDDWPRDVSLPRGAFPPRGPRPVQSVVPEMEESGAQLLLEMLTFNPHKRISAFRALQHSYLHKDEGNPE
T1 sequence (P24385 whole entry partner): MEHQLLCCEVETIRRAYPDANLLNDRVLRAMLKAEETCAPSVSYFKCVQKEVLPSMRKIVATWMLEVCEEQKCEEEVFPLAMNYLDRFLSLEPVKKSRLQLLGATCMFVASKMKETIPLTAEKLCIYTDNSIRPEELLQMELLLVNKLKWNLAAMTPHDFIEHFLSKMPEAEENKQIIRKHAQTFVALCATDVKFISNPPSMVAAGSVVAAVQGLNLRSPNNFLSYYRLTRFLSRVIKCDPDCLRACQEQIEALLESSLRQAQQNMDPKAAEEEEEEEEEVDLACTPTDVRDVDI

Compound | IC50 (CDK4/CyclinD1; CDK4/CyclinD1, 200 μM ATP) | IC50 (CDK2/CyclinE1; CDK2/CyclinE1, 100 μM ATP) | IC50 (CDK4/CyclinD1; CDK4/CyclinD1) | IC50 (CDK2/CyclinE1; CDK2/CyclinE1)
CC(C)c1cnc2cnc(-c3ccnc(Nc4ccc(N5CCNCC5=O)cn4)n3)cn12 [Synthetic Example 143] | 10 to 100 nM | > 1000 nM | – | –
COc1nc(-c2nc(Nc3ccc(N4CCOCC4=O)cn3)ncc2F)cc2c1nc(C)n2C1CCCC1O (stereo not shown) [compound 71] | – | – | 10 to 100 nM | > 1000 nM
COc1nc(-c2nc(Nc3ccc(N4CCOCC4=O)cn3)ncc2F)cc2c1nc(C)n2C(C)CO (stereo not shown) [compound 72] | – | – | 10 to 100 nM | > 1000 nM
COc1nc(-c2nc(Nc3ccc(N4CCOC4=O)cn3)ncc2F)cc2c1nc(C)n2C(C)C [compound 85] | – | – | 10 to 100 nM | > 1000 nM
CCN1CCN(c2ccc(Nc3ncc(F)c(-c4cc5c(nc(C)n5C(C)C)c(OC)n4)n3)nc2)C1=O [compound 89] | – | – | 10 to 100 nM | > 1000 nM
COc1nc(-c2nc(Nc3ccc(N4CCC5(CCNC5=O)CC4)cn3)ncc2F)cc2c1nc(C)n2C(C)C [compound 90] | – | – | 10 to 100 nM | > 1000 nM
COc1nc(-c2nc(Nc3ccc(N4CCOCC4C)cn3)ncc2F)cc2c1nc(C)n2C(C)C (stereo not shown) [compound 97] | – | – | 10 to 100 nM | > 1000 nM
CCN1CCN(c2ccc(Nc3ncc(F)c(-c4cc5c(nc(C)n5C(C)C)c(OC)n4)n3)nc2)CC1=O [compound 105] | – | – | 10 to 100 nM | > 1000 nM
COc1nc(-c2ccnc(Nc3ccn(CC4CCNCC4)n3)n2)cc2c1ncn2C(C)C [compound 108] | 10 to 100 nM | > 1000 nM | – | –
COc1nc(-c2nc(Nc3ccc(N4CCNC5(CC5)C4)cn3)ncc2F)cc2c1nc(C)n2C(C)C [compound 110] | 10 to 100 nM | > 1000 nM | – | –
COc1nc(-c2nc(Nc3ccc(C(=O)N4CCC(N)CC4)c(C)n3)ncc2F)cc2c1nc(C)n2C(C)C [compound 120] | 10 to 100 nM | > 1000 nM | – | –
COc1nc(-c2ccnc(Nc3ccc4c(n3)CCN(C(=O)CO)C4)n2)cc2c1ncn2C(C)C [compound 141] | 10 to 100 nM | > 1000 nM | – | –
COc1nc(-c2ccnc(Nc3ccc4c(n3)CCN(C(=O)CC#N)C4)n2)cc2c1ncn2C(C)C [compound 142] | 10 to 100 nM | > 1000 nM | – | –
CC(C)c1cnn2ccc(-c3ccnc(Nc4ccc(C(=O)N5CCC(N(C)C)CC5)cc4)n3)cc12 [compound 148] | < 10 nM | < 10 nM | – | –
CC(C)c1cnn2ccc(-c3ccnc(Nc4ccc(C(=O)N5CCC(O)CC5)cc4)n3)cc12 [compound 149] | 10 to 100 nM | < 10 nM | – | –
CC(C)c1cnn2ccc(-c3ccnc(Nc4ccc(C(=O)N5CCC(O)C5)cc4)n3)cc12 (stereo not shown) [compound 150] | < 10 nM | < 10 nM | – | –
CC(C)c1cnn2ccc(-c3ccnc(Nc4ccc(C(=O)N5CCC(N(C)C)C5)cc4)n3)cc12 (stereo not shown) [compound 151] | < 10 nM | < 10 nM | – | –
CC(C)c1cnn2ccc(-c3ccnc(Nc4ccc(C(=O)N5CCC(N(C)C)C5)cc4F)n3)cc12 (stereo not shown) [compound 152] | 10 to 100 nM | 10 to 100 nM | – | –
CC(C)c1cnn2ccc(-c3ccnc(Nc4ccc(C(=O)N5CC(O)C5)cc4)n3)cc12 [compound 153] | < 10 nM | < 10 nM | – | –
CC(C)c1cnn2ccc(-c3ccnc(Nc4ccc(C(=O)N5CC(N(C)C)C5)cc4)n3)cc12 [compound 154] | < 10 nM | < 10 nM | – | –
CC(C)c1cnn2ccc(-c3ccnc(Nc4ccc(N5CCC(N(C)C)CC5=O)cc4F)n3)cc12 (stereo not shown) [compound 180] | < 10 nM | < 10 nM | – | –
CN(C)C1CCN(c2ccc(Nc3nccc(-c4ccn5ncc(C(C)(C)C)c5c4)n3)c(F)c2)C(=O)C1 (stereo not shown) [compound 181] | < 10 nM | < 10 nM | – | –

Compound | IC50 (CDK4/CyclinD1; CDK4/CyclinD1, 200 μM ATP) | IC50 (CDK2/CyclinE1; CDK2/CyclinE1, 100 μM ATP) | IC50 (CDK4/CyclinD1; CDK4/CyclinD1) | IC50 (CDK2/CyclinE1; CDK2/CyclinE1)
Cc1nn2ccc(-c3ccnc(Nc4ccc(S(N)(=O)=O)nc4)n3)cc2c1C(C)C [compound 182] | 10 to 100 nM | < 10 nM | – | –
Cc1cc(N2CCNCC2=O)ccc1Nc1nccc(-c2ccn3ncc(C(C)C)c3c2)n1 [compound 186] | 10 to 100 nM | < 10 nM | – | –
CC(C)c1cnn2ccc(-c3ccnc(Nc4cccc(N5CCNCC5=O)c4)n3)cc12 [compound 187] | 10 to 100 nM | 10 to 100 nM | – | –
CC(C)c1cnn2ccc(-c3ccnc(Nc4ccc(N5CCNCC5=O)cc4O)n3)cc12 [compound 188] | 10 to 100 nM | 10 to 100 nM | – | –
CNC1CN(C(=O)c2ccc(Nc3nccc(-c4ccn5ncc(C(C)C)c5c4)n3)cc2)C1 [compound 190] | < 10 nM | 10 to 100 nM | – | –
CC(C)c1cnn2ccc(-c3ccnc(Nc4ccc(N5CCC(C)(N)CC5=O)cc4Cl)n3)cc12 (stereo not shown) [compound 212] | < 10 nM | < 10 nM | – | –
COc1cc(N2CCCC(N)C2=O)ccc1Nc1nccc(-c2ccn3ncc(C(C)C)c3c2)n1 (stereo not shown) [compound 222] | 10 to 100 nM | 10 to 100 nM | – | –
CC(C)c1cnn2ccc(-c3ccnc(Nc4ccc(N5CCCC(N)C5=O)cc4F)n3)cc12 (stereo not shown) [compound 223] | < 10 nM | 10 to 100 nM | – | –
CC(C)c1cnn2ccc(-c3ccnc(Nc4ccc(N5CCNCC5=O)c(F)c4)n3)cc12 [compound 228] | < 10 nM | < 10 nM | – | –
CC(C)c1cnn2ccc(-c3ccnc(Nc4ccc(N5CCNCC5=O)c(F)c4F)n3)cc12 [compound 229] | < 10 nM | < 10 nM | – | –
CCNC1CCN(c2ccc(Nc3nccc(-c4ccn5ncc(C(C)C)c5c4)n3)c(F)c2)C(=O)C1 (stereo not shown) [compound 230] | < 10 nM | < 10 nM | – | –
CNC1CCCN(c2ccc(Nc3nccc(-c4ccn5ncc(C(C)C)c5c4)n3)c(F)c2)C1=O (stereo not shown) [compound 231] | < 10 nM | 10 to 100 nM | – | –
CC(C)(C)c1cnn2ccc(-c3ccnc(Nc4ccc(N5CCCC(N)C5=O)cc4F)n3)cc12 (stereo not shown) [compound 232] | < 10 nM | < 10 nM | – | –
CC(C)c1cnn2ccc(-c3ccnc(Nc4ccc(N5CCC(NCCF)CC5=O)cc4)n3)cc12 (stereo not shown) [compound 233] | < 10 nM | < 10 nM | – | –
CCN1CCN(Cc2ccc(Nc3ncc(F)c(N4CCc5ncn(C(C)C)c5C4)n3)nc2)CC1 [compound 251] | 10 to 100 nM | > 1000 nM | – | –
CC(C)n1cnc2c1CN(c1nc(Nc3ccc(S(N)(=O)=O)nc3)ncc1F)CC2 [compound 254] | 10 to 100 nM | < 10 nM | – | –
CC(C)n1cnc2c1CN(c1nc(Nc3ccc4c(c3)CS(=O)(=O)C4)ncc1F)CC2 [compound 255] | < 10 nM | < 10 nM | – | –
CC(C)n1cnc2c1CN(c1nc(Nc3ccc(N4CCNCC4=O)cc3F)ncc1F)CC2 [compound 256] | < 10 nM | < 10 nM | – | –
CC1(C)COc2c(F)cc(-c3ccnc(Nc4ccc(N5CCCC(N)C5=O)nc4)n3)cc21 (stereo not shown) [compound 264] | < 10 nM | 10 to 100 nM | – | –
CCN1CCN(c2ccc(Nc3nccc(-c4cc5c(ncn5C(C)C)c(F)n4)n3)nc2)C(=O)C1 [compound 274] | < 10 nM | 100 to 1000 nM | – | –
CC(C)n1cnc2c(F)nc(-c3ccnc(Nc4ccc(N5CCC(C)(N)CC5=O)cc4Cl)n3)cc21 (stereo not shown) [compound 291] | < 10 nM | < 10 nM | – | –
COc1cc(N2CCC(N(C)C)CC2=O)ccc1Nc1nccc(-c2cc3c(ncn3C(C)C)c(F)n2)n1 (stereo not shown) [compound 296] | < 10 nM | < 10 nM | – | –
